This note sets out measurements from patent publication US20260374756A1, “HETEROCYCLIC COMPOUNDS AS INHIBITORS OF MONOACYLGLYCEROL LIPASE (MAGL)” (Hoffmann-La Roche Inc., priority 2022, published 2026).

The assay has as its target T1, hMAGL (Homo sapiens, UniProt Q99685).
T1 sequence (Q99685 1-303): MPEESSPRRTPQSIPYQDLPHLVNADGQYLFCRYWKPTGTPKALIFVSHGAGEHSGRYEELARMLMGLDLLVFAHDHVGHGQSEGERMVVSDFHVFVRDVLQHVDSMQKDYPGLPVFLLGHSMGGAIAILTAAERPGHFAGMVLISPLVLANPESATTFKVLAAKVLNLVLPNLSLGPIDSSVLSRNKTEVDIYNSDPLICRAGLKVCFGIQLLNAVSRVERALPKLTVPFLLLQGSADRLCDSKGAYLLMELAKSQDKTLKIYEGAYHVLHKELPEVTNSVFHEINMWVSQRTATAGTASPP
Kind of assay: 2-AG assay: MAGL inhibition, hydrolysis of 2-arachidonoylglycerol to arachidonic acid followed by mass spectrometry. The class given is biochemical. Put shortly:
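MAGL preincubated with compound 15 min at RT in 50 mM Tris, 1 mM EDTA, 0.01% Tween-20, 2.5% DMSO; reaction started with 8 μM 2-AG (final), […], 30 min at RT. Quenched with acetonitrile containing d8-arachidonic acid; arachidonic acid quantified by RapidFire SPE-triple quad MS as arachidonic acid/d8 ratio.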

What is called IC50 is the midpoint of a concentration-inhibition curve. A higher IC50 goes with lower potency. `O=C(N1CC2(CC(Cc3cnn(CC(F)(F)F)c3)C2)C1)N1CC2(CC(n3cnc(C4(O)CC4)n3)C2)C1` [Example 291, [6-[3-(1-hydroxycyclopropyl)-1,2,4-triazol-1-yl]-2-azaspiro[3.3]heptan-2-yl]-[6-[[1-(2,2,2-trifluoroethyl)pyrazol-4-yl]methyl]-2-azaspiro[3.3]heptan-2-yl]methanone] came in with an IC50 of 10.8 nM.
As to `O=C(N1CC2(CCN(Cc3cc(C(F)(F)F)no3)CC2)C1)N1CC2(CC(n3cnc(C4(O)CC4)n3)C2)C1` [Example 18, [6-[3-(1-hydroxycyclopropyl)-1,2,4-triazol-1-yl]-2-azaspiro[3.3]heptan-2-yl]-[7-[[3-(trifluoromethyl)isoxazol-5-yl]methyl]-2,7-diazaspiro[3.5]nonan-2-yl]methanone], inhibition was half-maximal at 334 nM (IC50). Against the preceding compound, the IC50 is about 31-fold higher.
In the case of `CC(C)(C)n1ccnc1CN1CC2(C1)CN(C(=O)N1CC3(CC(n4cnc(C(F)(F)F)n4)C3)C1)C2` [Example 319, [6-[(1-tert-butylimidazol-2-yl)methyl]-2,6-diazaspiro[3.3]heptan-2-yl]-[6-[3-(trifluoromethyl)-1,2,4-triazol-1-yl]-2-azaspiro[3.3]heptan-2-yl]methanone] it was 58.3 nM.
In the case of `O=C(N1CC2(CC(Cc3cn[nH]c3C(F)(F)F)C2)C1)N1CC2(CC(n3cnc(C(F)F)n3)C2)C1` [Example 346, [6-[3-(difluoromethyl)-1,2,4-triazol-1-yl]-2-azaspiro[3.3]heptan-2-yl]-[6-[[5-(trifluoromethyl)-1H-pyrazol-4-yl]methyl]-2-azaspiro[3.3]heptan-2-yl]methanone] it was 1.99 nM; in that of `Cc1cc(C2CC2)n(CC2CC3(C2)CN(C(=O)N2CC4(CC(n5cnc(C6CC6)n5)C4)C2)C3)n1` [Example 132, [6-[(5-cyclopropyl-3-methyl-pyrazol-1-yl)methyl]-2-azaspiro[3.3]heptan-2-yl]-[6-(3-cyclopropyl-1,2,4-triazol-1-yl)-2-azaspiro[3.3]heptan-2-yl]methanone], 0.29 nM.
For the compound `O=C(N1CC2(CC(c3cc(C4CC4)n[nH]3)C2)C1)N1CC2(CN(Cc3ncc(C(F)F)s3)C2)C1` [Example 185, [6-(3-cyclopropyl-1H-pyrazol-5-yl)-2-azaspiro[3.3]heptan-2-yl]-[6-[[5-(difluoromethyl)thiazol-2-yl]methyl]-2,6-diazaspiro[3.3]heptan-2-yl]methanone], it took 3.44 nM to reach half-maximal inhibition (IC50).
On to `O=C(N1CC2(CC(n3cnc(C4(O)CC4)n3)C2)C1)N1CC2(CN(Cc3nc(C(F)(F)F)cs3)C2)C1` [Example 52], for which the IC50 was determined as 138 nM.
`Cc1onc(C2CC2)c1CN1CC2(C1)CN(C(=O)N1CC3(CC(n4cnc(C5CC5)n4)C3)C1)C2` [Example 268, [6-[(3-cyclopropyl-5-methyl-isoxazol-4-yl)methyl]-2,6-diazaspiro[3.3]heptan-2-yl]-[6-(3-cyclopropyl-1,2,4-triazol-1-yl)-2-azaspiro[3.3]heptan-2-yl]methanone]: the IC50 turned out to be 8.8 nM.
In the case of `O=C(N1CC2(CC(Cc3n[nH]cc3C(F)(F)F)C2)C1)N1CC2(CC(n3cnc(C(F)(F)F)n3)C2)C1` [Example 129, [6-[[4-(trifluoromethyl)-1H-pyrazol-3-yl]methyl]-2-azaspiro[3.3]heptan-2-yl]-[6-[3-(trifluoromethyl)-1,2,4-triazol-1-yl]-2-azaspiro[3.3]heptan-2-yl]methanone] it was 0.31 nM; in that of `O=C(N1CC2(CC(n3cnc(C4CC4)n3)C2)C1)N1CC2(CN(Cc3cc(C(F)(F)F)no3)C2)C1` [Example 184, [6-(3-cyclopropyl-1,2,4-triazol-1-yl)-2-azaspiro[3.3]heptan-2-yl]-[6-[[3-(trifluoromethyl)isoxazol-5-yl]methyl]-2,6-diazaspiro[3.3]heptan-2-yl]methanone], 6.68 nM.
`Cn1ncc(C(F)(F)F)c1CN1CCC2(CC1)CN(C(=O)N1CC3(CC(n4cnc(C5CC5)n4)C3)C1)C2` [Example 66, [6-(3-cyclopropyl-1,2,4-triazol-1-yl)-2-azaspiro[3.3]heptan-2-yl]-[7-[[2-methyl-4-(trifluoromethyl)pyrazol-3-yl]methyl]-2,7-diazaspiro[3.5]nonan-2-yl]methanone] returned an IC50 of 0.41 nM. This IC50 is about 16-fold lower than that of the compound before.
Compound `CCc1nsc(CN2CC3(C2)CN(C(=O)N2CC4(CC(n5cnc(C6CC6)n5)C4)C2)C3)n1` [Example 287, [6-(3-cyclopropyl-1,2,4-triazol-1-yl)-2-azaspiro[3.3]heptan-2-yl]-[6-[(3-ethyl-1,2,4-thiadiazol-5-yl)methyl]-2,6-diazaspiro[3.3]heptan-2-yl]methanone] came in with an IC50 of 135 nM. Compared with the last compound, the IC50 is about 330-fold higher.
For `O=C(N1CC2(CC(n3cnc(C(F)(F)F)n3)C2)C1)N1CC2(CN(Cc3cc(C(F)(F)F)ns3)C2)C1` [Example 153, [6-[[3-(trifluoromethyl)isothiazol-5-yl]methyl]-2,6-diazaspiro[3.3]heptan-2-yl]-[6-[3-(trifluoromethyl)-1,2,4-triazol-1-yl]-2-azaspiro[3.3]heptan-2-yl]methanone], the IC50 amounted to 15.3 nM.
`O=C(N1CC2(CC(Cc3cc(C4CC4)n[nH]3)C2)C1)N1CC2(CC(n3cnc(C(F)(F)F)n3)C2)C1` [Example 123, [6-[(3-cyclopropyl-1H-pyrazol-5-yl)methyl]-2-azaspiro[3.3]heptan-2-yl]-[6-[3-(trifluoromethyl)-1,2,4-triazol-1-yl]-2-azaspiro[3.3]heptan-2-yl]methanone]: the midpoint of inhibition, the IC50, lay at 0.34 nM.
For `Cn1ncc(OC2CC3(C2)CN(C(=O)N2CC4(CC(n5cnc(C(F)(F)F)n5)C4)C2)C3)c1C(F)(F)F` [Example 246, [6-[1-methyl-5-(trifluoromethyl)pyrazol-4-yl]oxy-2-azaspiro[3.3]heptan-2-yl]-[6-[3-(trifluoromethyl)-1,2,4-triazol-1-yl]-2-azaspiro[3.3]heptan-2-yl]methanone] the value was 3.98 nM; for `CC(C)(C)c1noc(CN2CC3(C2)CN(C(=O)N2CC4(CC(n5cnc(C6CC6)n5)C4)C2)C3)n1` [Example 266, [6-[(3-tert-butyl-1,2,4-oxadiazol-5-yl)methyl]-2,6-diazaspiro[3.3]heptan-2-yl]-[6-(3-cyclopropyl-1,2,4-triazol-1-yl)-2-azaspiro[3.3]heptan-2-yl]methanone], 2 nM.
On to `CC(C)(C)c1csc(CN2CC3(C2)CN(C(=O)N2CC4(CC(n5cnc(C(F)(F)F)n5)C4)C2)C3)n1` [Example 200, [6-[(4-tert-butylthiazol-2-yl)methyl]-2,6-diazaspiro[3.3]heptan-2-yl]-[6-[3-(trifluoromethyl)-1,2,4-triazol-1-yl]-2-azaspiro[3.3]heptan-2-yl]methanone], for which it took 1.16 nM to reach half-maximal inhibition (IC50).
In the case of `O=C(N1CC2(CC(Cn3nccc3C(F)(F)F)C2)C1)N1CC2(CC(n3cnc(C4(O)CC4)n3)C2)C1` [Example 4] it was 1.74 nM; in that of `O=C(N1CC2(CC(n3cnc(C(F)(F)F)n3)C2)C1)N1CC2(CN(Cc3snnc3C3CC3)C2)C1` [Example 89, [6-[(4-cyclopropylthiadiazol-5-yl)methyl]-2,6-diazaspiro[3.3]heptan-2-yl]-[6-[3-(trifluoromethyl)-1,2,4-triazol-1-yl]-2-azaspiro[3.3]heptan-2-yl]methanone], 312 nM; in that of `O=C(N1CC2(CC(Cn3cnc(C(F)(F)F)c3)C2)C1)N1CC2(CC(n3cnc(C4CC4)n3)C2)C1` [Example 40, [6-(3-cyclopropyl-1,2,4-triazol-1-yl)-2-azaspiro[3.3]heptan-2-yl]-[6-[[4-(trifluoromethyl)imidazol-1-yl]methyl]-2-azaspiro[3.3]heptan-2-yl]methanone], 4.16 nM.
For `Cn1ncc(C(F)(F)F)c1CN1CC2(C1)CN(C(=O)N1CC3(CC(n4cnc(C5CC5)n4)C3)C1)C2` [Example 159, [6-(3-cyclopropyl-1,2,4-triazol-1-yl)-2-azaspiro[3.3]heptan-2-yl]-[6-[[2-methyl-4-(trifluoromethyl)pyrazol-3-yl]methyl]-2,6-diazaspiro[3.3]heptan-2-yl]methanone] the value was 2.2 nM; for `O=C(N1CC2(CC(Cc3nnc(C4(C(F)(F)F)CC4)o3)C2)C1)N1CC2(CC(n3cnc(C(F)(F)F)n3)C2)C1` [Example 7], 2.51 nM; for `O=C(N1CC2(CC(Cc3nc(C(F)(F)F)c[nH]3)C2)C1)N1CC2(CC(n3cnc(C(F)(F)F)n3)C2)C1` [Example 348, [6-[[4-(trifluoromethyl)-1H-imidazol-2-yl]methyl]-2-azaspiro[3.3]heptan-2-yl]-[6-[3-(trifluoromethyl)-1,2,4-triazol-1-yl]-2-azaspiro[3.3]heptan-2-yl]methanone], 1.51 nM.
In the case of `CCc1nsc(CN2CC3(C2)CN(C(=O)N2CC4(CC(n5cnc(C(F)(F)F)n5)C4)C2)C3)n1` [Example 286, [6-[(3-ethyl-1,2,4-thiadiazol-5-yl)methyl]-2,6-diazaspiro[3.3]heptan-2-yl]-[6-[3-(trifluoromethyl)-1,2,4-triazol-1-yl]-2-azaspiro[3.3]heptan-2-yl]methanone] it was 120 nM; in that of `O=C(N1CC2(CC(Cc3cc(C(F)(F)F)n[nH]3)C2)C1)N1CC2(CC(n3cnc(C4(O)CC4)n3)C2)C1` [Example 299, [6-[3-(1-hydroxycyclopropyl)-1,2,4-triazol-1-yl]-2-azaspiro[3.3]heptan-2-yl]-[6-[[3-(trifluoromethyl)-1H-pyrazol-5-yl]methyl]-2-azaspiro[3.3]heptan-2-yl]methanone], 1.83 nM.
